Experimental data as given in patent publication US10112918B2, “15-oxospiramilactone derivatives, preparation method and uses thereof” (Kunming Institute of Botany, The Chinese Academy of Sciences, priority 2013, dated 2018).
Read-outs that look alike come from different tables or passages of the source. Blank lines part the entries; values can stand above or below the compound they belong to.

How the values were obtained:
Format in all cases: cell-based
[1] = tested on: Wnt signaling pathway (Top-Flash reporter gene); test: Top-Flash Wnt reporter gene assay in HEK293T cells with Wnt3a conditioned medium; conditions: Homo sapiens, HEK-293T, 6 h, 6 h
Protocol: HEK293T cells were cultured in DMEM containing 10% fetal bovine serum (Invitrogen) at 37° C., 5% CO2. The cells were passaged every other day. The density was retained at 70˜80% during passage. L cell line (CRL-2647, purchased from the gene bank of ATCC, the US) and the control cell line (CRL-2648, purchased from ATCC, US), which stably secreted mouse Wnt3a protein, were cultured in DMEM containing 50 ug/ml G418 and 10% fetal bovine serum, at 37° C., 5% CO2. When the cells grew to a density of about 70%, the medium was replaced with DMEM containing 10% fetal bovine serum. After continuous culture for 4 days, the culture was collected and centrifuged, and the supernatant was kept so that the Wnt conditioned medium was obtained. After titration assay, the conditioned medium was quick-frozen in liquid nitrogen, and placed at −80° C. for long-term storage, so that the titer was kept unchanged.
The cells were seeded to a 48-well plate at a density of […] cells per well, and transfected 20 h later. The reagents for plasmid transfection were calculated based on the amount in each well of the 48-well plate as following: the total amount of plasmid was 125 ng/well; the plasmid was first added to a serum-free medium (25 μL/well) and mixed well; PLUS reagent (Invitrogen) was then added in an amount of 0.5 μL/well and mixed well, then stood for 15 min; Lipofectamine (Invitrogen) liposome was added in an amount of 0.5 μL/well to serum-free DMEM medium (25 μL/well), and then mixed with the solution containing the plasmid and the PLUS, and stood for 15 min. The cells were cultured in serum-free DMEM medium (100 μL/well), and the final mixture of plasmid, PLUS and Lipofectamine were added to the cells. After incubation for 3 h, the transfection was stopped by the medium containing 10% fetal bovine serum (200 μL/well).
The HEK293T cells used for activity assay of the report gene were transfected by the method as shown in 2). Activity assay of Wnt reporter gene: the amount of plasmid for transfection was 5 ng/well for TOP-flash and 5 ng/well for GFP plasmid as internal standard, with lacZ added to reach a total amount of 125 ng/well. […] After treating for 6 h, Boehringer Mannheim Luci-ferase Assay Kit was used to lyse cells (200 μL/well). 50 μL from each well was pipetted into a 96-well plate. The indensity of GFP protein in the cell lysate was measured by fluorimeter FL600 (BIO-TEK Inc. Winooski, Vt.), and taken as internal standard for cell transfection efficiency. 10 μL substrate of luciferase was then added to each well, and the activity of luciferase was measured by Micro Lumate Plus (Perkin Elmer Inc. Wellesley, Mass.) luminometer. Finally, GFP indensity was used as internal standard to calibrate the activity of luciferase, i.e. the activity of Wnt reporter gene.
Calculation of IC50 (taking the calculation of IC50 of the Wnt signaling pathway for example): background (the activity as measured in the groups treated with a conditioned medium containing DMSO only) was subtracted from the reporter gene activity as measured in the groups treated by Wnt3a conditioned medium with or without the compound to be tested at different concentrations; and the obtained value was defined as the activity of the reporter gene induced by Wnt or the residual activity of the reporter gene after adding the compound to be tested. The residual activity was normalized by the activity induced by Wnt to get the relative residual activity. Then combine with the concentrations of the compound to be tested to plot a linear graph, and a dose-effect curve was fitted based on 4-parameter logistic fit. IC50 of the Wnt signaling pathway is determined as the concentration at which the relative residual activity is 0.5.

[2] = tested on: SW-480 (human colon cancer cells); test: MTT inhibition of tumor cell growth, SW-480; conditions: Homo sapiens
Protocol: (§1) 1. Inoculating cells: the culture medium DMEM or RMPI1640 containing 10% fetal bovine serum was used to prepare a single cell suspension, and the cell suspension was inoculated to a 96-well plate at 5000-10000 cells per well (100 μl for each well); Adherent cells were inoculated and cultured for 12 h in advance. HL-60 (human promyelocytic leukemia cells), SMMC-7721 (human hepatoma cells), A-549 (Human lung adenocarcinoma cells), MCF-7 (human breast cancer cells), SW-480 (human colon cancer cells) were purchased from the Cell Bank of the Chinese Academy of Sciences, Shanghai.
(§2) 2. The solution of the compound to be tested (40 μM for primary screening; 5 concentrations were set for gradient re-screening for the compounds which achieve about 50% inhibition of tumor cell growth at 40 μM) was added, the final volume of each well was 200 μl, and triplicate wells were set for each test.
(§3) 3. Coloration: After culturing at 37° C. for 48 h, MTT solution (20 μl) was added to each well. After incubation for another 4 h, the culture was stopped. The supernatant in each well was pipetted and discarded, and 200 μl SDS solution (10%) was added to each well. Incubation was performed overnight (at 37° C.), to completely dissolve the crystal.
(§4) 4. Colorimetric assay: ELISA Reader (Bio-Rad 680) was used to obtain the light absorption for each well at a wavelength of 595 nm, the results were recorded. A cell growth curve was plotted with the concentration as abscissa and the cell survival percentage as ordinate. The two-point method (Reed and Muench method) was used to calculate the IC50 of the compound.

[3] = tested on: SMMC-7721 (human hepatoma cells); test: MTT inhibition of tumor cell growth, SMMC-7721; conditions: Homo sapiens
Protocol: as §1, §2, §3, §4

[4] = tested on: MCF-7 (human breast cancer cells); test: MTT inhibition of tumor cell growth, MCF-7; conditions: Homo sapiens
Protocol: as §1, §2, §3, §4

[5] = tested on: A-549 (Human lung adenocarcinoma cells); test: MTT inhibition of tumor cell growth, A-549; conditions: Homo sapiens
Protocol: as §1, §2, §3, §4

[6] = tested on: HL-60 (human promyelocytic leukemia cells); test: MTT inhibition of tumor cell growth, HL-60; conditions: Homo sapiens
Protocol: as §1, §2, §3, §4

[7] = Table 7 (second), derivatives modified on 7-hydroxyl of S-3, HEK293T, Wnt3a conditioned medium, read-out: IC50 (μM), inhibitory activity on the Wnt signaling pathway
[8] = SW480, 48 h, Table 1, 7-hydroxy derivatives of S-3, read-out: IC50 SW-480
[9] = SMMC-7721, 48 h, Table 1, 7-hydroxy derivatives of S-3
[10] = MCF7, 48 h, Table 1, 7-hydroxy derivatives of S-3
[11] = A549, 48 h, Table 1, 7-hydroxy derivatives of S-3
[12] = HL-60, 48 h, Table 1, 7-hydroxy derivatives of S-3
[13] = read-out: IC50 (μM), inhibitory activity on the Wnt signaling pathway
[14] = SW480, Table 7 (first), alkaloid derivatives, 48 h, read-out: IC50 SW-480
[15] = SMMC-7721, Table 7 (first), alkaloid derivatives, 48 h
[16] = MCF7, Table 7 (first), alkaloid derivatives, 48 h
[17] = A549, Table 7 (first), alkaloid derivatives, 48 h
[18] = HL-60, Table 7 (first), alkaloid derivatives, 48 h
[19] = Table 9, HEK293T, Wnt3a conditioned medium, read-out: IC50(μM), inhibitory activity on the Wnt signaling pathway

SMILES: C=C1C(=O)[C@]23CC[C@H]1CC2[C@@]12CCC[C@@](C)(CN(CCO)C1)C2CC3=O (some centres unmarked) [Compound 91]
IC50 [1, 13]: 49.4 ± 1.42 µM | IC50 [2, 14]: 11800 nM | IC50 [3, 15]: 15.2 µM | IC50 [4, 16]: 15.7 µM | IC50 [5, 17]: 9240 nM | IC50 [6, 18]: 14.3 µM

SMILES: C=C1C(=O)[C@@]23CC[C@@H](CC2[C@@]24CCC[C@@](C)(COC2)C14)C1(CO1)C3=O (some centres unmarked) [Compound 29]
IC50 [1, 19]: > 60 µM

SMILES: C[C@]12CCC[C@@]3(C(=O)OC1)C1C[C@@H]4CCC1(C(=O)[C@@H]4CN1CCOCC1)[C@H](O)CC23 (some centres unmarked) [Compound 76]
IC50 [1, 19]: > 60 µM | IC50 ([2]; SW480, 48 h, Table 2, derivatives having potential Michael reaction acceptor, read-out: IC50 SW-480): 7690 nM | IC50 ([3]; SMMC-7721, 48 h, Table 2, derivatives having potential Michael reaction acceptor): 13.1 µM | IC50 ([4]; MCF7, 48 h, Table 2, derivatives having potential Michael reaction acceptor): 5.96 µM | IC50 ([5]; A549, 48 h, Table 2, derivatives having potential Michael reaction acceptor): 4040 nM | IC50 ([6]; HL-60, 48 h, Table 2, derivatives having potential Michael reaction acceptor): 5.28 µM

SMILES: C=C1C(=O)[C@@]23CC[C@@H](CC2[C@@]24CCC[C@@](C)(CN(CCO)C2)C14)C(=C)[C@@H]3O (some centres unmarked) [Compound 89]
IC50 [1, 13]: 8.34 ± 0.9 µM | IC50 [2, 14]: 9840 nM | IC50 [3, 15]: 1.48 µM | IC50 [4, 16]: 6.98 µM | IC50 [5, 17]: 3040 nM | IC50 [6, 18]: 4.82 µM

Next, values leading:

IC50 [1, 7]: 18.6 ± 1.48 µM | IC50 [2, 8]: 2430 nM | IC50 [3, 9]: 3.6 µM | IC50 [4, 10]: 3.07 µM | IC50 [5, 11]: 2460 nM | IC50 [6, 12]: 4.2 µM
SMILES: C=C1C(=O)C23CC[C@H]1CC2[C@@]12CCC[C@@](C)(COC1=O)C2C[C@H]3OC(=O)c1ccc(OC)cc1 (some centres unmarked) [Compound 1l]

IC50 [1, 7]: 22.14 ± 0.1 µM | IC50 [2, 8]: 2370 nM | IC50 [3, 9]: 4.1 µM | IC50 [4, 10]: 2.74 µM | IC50 [5, 11]: 2960 nM | IC50 [6, 12]: 4.44 µM
SMILES: C=C1C(=O)C23CC[C@H]1CC2[C@@]12CCC[C@@](C)(COC1=O)C2C[C@H]3OC(=O)CN=[N+]=[N-] (some centres unmarked) [Compound 1e]

IC50 [1, 19]: 11.2 ± 1.54 µM | IC50 ([2]; SW480, 48 h, Table 5, derivatives having double Michael reaction acceptor, read-out: IC50 SW-480): 150 nM | IC50 ([2]; SW480, 48 h, Table 6, double Michael reaction acceptor derivatives, read-out: IC50 SW-480, derivatives having double Michael reaction acceptor): 650 nM | IC50 ([3]; SMMC-7721, 48 h, Table 5, derivatives having double Michael reaction acceptor): 0.26 µM | IC50 ([4]; MCF7, 48 h, Table 5, derivatives having double Michael reaction acceptor): 0.53 µM | IC50 ([5]; A549, 48 h, Table 5, derivatives having double Michael reaction acceptor): 560 nM | IC50 ([6]; HL-60, 48 h, Table 5, derivatives having double Michael reaction acceptor): 0.51 µM
SMILES: C=C1C(=O)C23CC[C@@H](CC2[C@]2(COS(C)(=O)=O)CCC[C@@](C)(COS(C)(=O)=O)C12)C(=C)C3=O (some centres unmarked) [Compound 74a]
